From patent US12473291B2 (priority 2019, dated 2025)
Where two headings read alike, the source gives them in different places.

Assays:
KM mice = assay: animal or person; format: in vivo; conditions: for duration and recovery time compared with remimazolam / effective dose compared with remimazolam: mice, tail vein, in words
SD rats = assay: animal or person; format: in vivo; conditions: for duration and recovery time compared with remimazolam / effective dose compared with remimazolam: rats, tail vein, in words
[1] = KM mice, single tail vein injection at 2×ED50, time from disappearance to recovery of righting reflex
[2] = KM mice, single tail vein injection at 2×ED50, time from recovery of righting reflex to free crawling
[3] = Mus musculus, KM mice (male, 18-22 g), injection via the tail vein, disappearance of righting reflex, read-out: ED50
[4] = Rattus norvegicus, SD rats (male, 220-300 g), injection via the tail vein, disappearance of righting reflex, read-out: ED50
[5] = SD rats, single tail vein injection at 2×ED50, time from disappearance to recovery of righting reflex
[6] = SD rats, single tail vein injection at 2×ED50, time from recovery of righting reflex to free crawling
[7] = KM mice (male, 18-22 g), injection via the tail vein, disappearance of righting reflex
[8] = SD rats (male, 220-300 g), injection via the tail vein, disappearance of righting reflex

| Structure (SMILES) | 2ED50 duration (KM mice; [1]) [min] | 2ED50 recovery time (KM mice; [2]) [min] | Quality of recovery (KM mice; KM mice, tail vein injection) | ED50 (KM mice; [3]) [mg/kg] | ED50 (SD rats; [4]) [mg/kg] | 2ED50 duration (SD rats; [5]) [min] | 2ED50 recovery time (SD rats; [6]) [min] | Quality of recovery (SD rats; SD rats, tail vein injection) | other results |
| --- | --- | --- | --- | --- | --- | --- | --- | --- | --- |
| Cc1cnc2n1-c1cc(Br)c(Br)cc1C(c1ccccn1)=N[C@H]2CCC(=O)OCOC(=O)OC(C(C)C)C(C)C [Example 14] | 6.42 | 2.29 | +++ (“+++” means 3-5 min) | 32 | 6.9 | 5.06 | 2.39 | ++ (“++” means 1-3 min) | – |
| Cc1cnc2n1-c1ccc(Br)cc1C(c1ccccn1)=N[C@H]2CCC(=O)OCOC(=O)OC(C)C [Example 48] | 8.56 | 2.48 | ++++ (“++++” means 5-10 min) | 27 | 5.3 | 4.16 | 2.42 | +++ (“+++” means 3-5 min) | – |
| COC(=O)C1(OC(=O)CC[C@@H]2N=C(c3ccccn3)c3cc(Cl)c(C(F)(F)F)cc3-n3c(C)cnc32)CC1 [Example 25] | 5.32 | 2.19 | ++ (“++” means 1-3 min) | 34 | 4.2 | 3.53 | 2.21 | ++ (“++” means 1-3 min) | – |
| COC(=O)C(OC(=O)CC[C@@H]1N=C(c2ccccn2)c2cc(Cl)cc(OC(F)(F)F)c2-n2c(C)cnc21)C1CCCCCCCCC1 (stereo partly shown) [Example 82] | 3.54 | 2.13 | +++ (“+++” means 3-5 min) | 29.8 | 5.8 | 2.15 | 2.10 | ++ (“++” means 1-3 min) | – |
| COC(=O)OC(C)OC(=O)CC[C@@H]1N=C(c2ccccn2)c2cc(Br)c(Br)cc2-n2c(C)cnc21 (stereo partly shown) [Example 15] | 1.43 | 1.01 | – | 18.3 | 1.5 | 1.29 | 1.01 | + (“+” means <1 min) | duration and recovery time compared with remimazolam (KM mice): significantly shorter; effective dose compared with remimazolam (KM mice): significantly lower; duration and recovery time compared with remimazolam (SD rats): significantly shorter; effective dose compared with remimazolam (SD rats): significantly lower |
| CCC(CC)OC(=O)OCOC(=O)CC[C@@H]1N=C(c2ccccn2)c2cc(Br)ccc2-n2c(C)cnc21 [Example 50] | 7.84 | 1.47 | ++ (“++” means 1-3 min) | 24.6 | 6.3 | 3.56 | 2.41 | ++ (“++” means 1-3 min) | – |
| COC1N(C)CC(CC(OC(=O)CC[C@@H]2N=C(c3ccccn3)c3cc(OC(F)(F)F)cc(C)c3-n3c(C)cnc32)OC(=O)OC(C(C)C)C(C)C)CN1C (stereo partly shown) [Example 83] | 3.26 | 2.46 | +++ (“+++” means 3-5 min) | 30.1 | 6.1 | 2.09 | 2.09 | +++ (“+++” means 3-5 min) | – |
| CCOC(=O)OCOC(=O)CC[C@@H]1N=C(c2ccccn2)c2cc(Cl)cc(F)c2-n2c(C)cnc21 [Example 71, ((Ethoxycarbonyl)oxy)methyl 3-((4S)-8-chloro-10-fluoro-1-methyl-6-(pyridine-2-yl)-4H-benzo[f]imidazo [1,2-a][1,4]diaza-4-yl)propionate 2-hydroxypropane-1,2,3-tricarboxylate] | – | – | – | – | – | – | – | – | ED50 (KM mice; Mus musculus): 28.2 mg/kg; 2ED50 duration (KM mice; mouse, in vivo): 3.09 min; 2ED50 recovery time (KM mice; mouse, in vivo): 2.36 min; Quality of recovery (KM mice; mouse, in vivo): ++ (key: “+” means <1 mm; “++” means 1-3 min; “+++” means 3-5 min; “++++” means 5-10 min; “+++++” means >10 mm); ED50 (SD rats; Rattus norvegicus): 4.8 mg/kg; 2ED50 duration (SD rats; rat, in vivo): 3.21 min; 2ED50 recovery time (SD rats; rat, in vivo): 2.36 min; Quality of recovery (SD rats; rat, in vivo): + (key: “+” means <1 min; “++” means 1-3 min; “+++” means 3-5 min; “++++” means 5-10 min; “+++++” means >10 min) |
| COC(=O)C(C)(C)OC(=O)CC[C@@H]1N=C(c2ccccn2)c2cc(Cl)c(Cl)c(Cl)c2-n2c(C)cnc21 [Example 30] | 4.04 | 1.59 | ++ (“++” means 1-3 min) | – | – | 3.01 | 2.51 | ++ (“++” means 1-3 min) | ED50 (KM mice; [7]): 30.2 mg/kg; ED50 (SD rats; [8]): 6.2 mg/kg |
| COC(=O)C(C)OC(=O)CC[C@@H]1N=C(c2ccccn2)c2cc(Br)c(Br)cc2-n2c(C)cnc21 (stereo partly shown) [Example 22] | 5.58 | 2.18 | ++ (“++” means 1-3 min) | 30.7 | 4.3 | 3.28 | 2.46 | ++ (“++” means 1-3 min) | – |
| CCOC(=O)C1(OC(=O)CC[C@@H]2N=C(c3ccccn3)c3cc(Br)ccc3-n3c(C)cnc32)CC1 [Example 59, Ethyl 1-((3-((4S)-8-bromo-1-methyl-6-(pyridine-2-yl)-4H-benzo[f]imidazo [1,2-a][1,4]diaza-4-yl)propionyl)oxy) cyclopropane-1-carboxylate] | 2.77 | 1.38 | – | 13.8 | 1.76 | 5.02 | 2.51 | ++ (“++” means 1-3 min) | duration and recovery time compared with remimazolam (KM mice): significantly shorter; effective dose compared with remimazolam (KM mice): significantly lower; duration and recovery time compared with remimazolam (SD rats): significantly shorter; effective dose compared with remimazolam (SD rats): significantly lower |
| CCCOC(=O)OCOC(=O)CC[C@@H]1N=C(c2ccccn2)c2c(ccc(Br)c2F)-n2c(C)cnc21 [Example 72, ((Propoxycarbonyl)oxy)methyl 3-((4S)-8-bromo-7-fluoro-1-methyl-6-(pyridine-2-yl)-4H-benzo[f]imidazo [1,2-a][1,4]diaza-4-ylpropionate sulfonate] | 3.12 | 2.48 | +++ (“+++” means 3-5 min) | 32.5 | 4.9 | 4.01 | 2.43 | ++ (“++” means 1-3 min) | – |
| COC(=O)C(C)OC(=O)CC[C@@H]1N=C(c2ccccn2)c2cc(Br)ccc2-n2c(C)cnc21 (stereo partly shown) [Example 60] | 2.46 | 1.47 | ++ (“++” means 1-3 min) | 22.5 | 3.5 | 2.12 | 2.14 | +++ (“+++” means 3-5 min) | – |
| COC(=O)CC[C@@H]1N=C(c2ccccn2)c2cc(Br)ccc2-n2c(C)cnc21 [Remimazolam, reference compound] | 8.58 | 5.49 | +++++ (“+++++” means >10 mm) | – | – | 7.58 | 6.46 | +++++ (“+++++” means >10 min) | ED50 (KM mice; [7]): 40 mg/kg; ED50 (SD rats; [8]): 8.9 mg/kg |
